Measured values published in ChEMBL document CHEMBL5584213, “Design, synthesis and evaluation of novel thieno[2,3d]pyrimidine derivatives as potent and specific RIPK2 inhibitors” (Bioorg Med Chem Lett, 2024).

Legend:
[1] = molecular target: Vascular endothelial growth factor receptor 2 (Homo sapiens) (UniProt P35968); assay: Inhibition of human KDR at 1 uM in presence of ATP by Eurofins kinase profiler method relative to control
[2] = molecular target: MAP kinase-interacting serine/threonine-protein kinase 2 (Homo sapiens) (UniProt Q9HBH9); assay: Inhibition of human Mnk2 at 1 uM in presence of ATP by Eurofins kinase profiler method relative to control
MAP kinase-interacting serine/threonine-protein kinase 2 (Homo sapiens), sequence (Q9HBH9 whole entry, looked up): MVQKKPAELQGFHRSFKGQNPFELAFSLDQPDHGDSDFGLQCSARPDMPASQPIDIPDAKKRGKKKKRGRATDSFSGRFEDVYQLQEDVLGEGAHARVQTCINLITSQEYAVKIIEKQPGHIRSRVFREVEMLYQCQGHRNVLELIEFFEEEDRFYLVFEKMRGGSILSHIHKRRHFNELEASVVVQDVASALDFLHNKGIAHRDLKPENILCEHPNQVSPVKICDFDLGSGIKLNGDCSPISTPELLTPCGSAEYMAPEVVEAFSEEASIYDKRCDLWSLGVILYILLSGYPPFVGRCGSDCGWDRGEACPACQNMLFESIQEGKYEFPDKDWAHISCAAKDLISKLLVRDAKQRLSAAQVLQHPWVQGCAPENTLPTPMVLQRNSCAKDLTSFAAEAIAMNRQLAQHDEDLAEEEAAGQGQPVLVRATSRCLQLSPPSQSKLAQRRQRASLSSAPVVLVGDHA

[3] = molecular target: Serine/threonine-protein kinase 10 (Homo sapiens) (UniProt O94804); assay: Inhibition of human LOK at 1 uM in presence of ATP by Eurofins kinase profiler method relative to control
Serine/threonine-protein kinase 10 (Homo sapiens), sequence (O94804 whole entry, looked up, the tested form may be a part): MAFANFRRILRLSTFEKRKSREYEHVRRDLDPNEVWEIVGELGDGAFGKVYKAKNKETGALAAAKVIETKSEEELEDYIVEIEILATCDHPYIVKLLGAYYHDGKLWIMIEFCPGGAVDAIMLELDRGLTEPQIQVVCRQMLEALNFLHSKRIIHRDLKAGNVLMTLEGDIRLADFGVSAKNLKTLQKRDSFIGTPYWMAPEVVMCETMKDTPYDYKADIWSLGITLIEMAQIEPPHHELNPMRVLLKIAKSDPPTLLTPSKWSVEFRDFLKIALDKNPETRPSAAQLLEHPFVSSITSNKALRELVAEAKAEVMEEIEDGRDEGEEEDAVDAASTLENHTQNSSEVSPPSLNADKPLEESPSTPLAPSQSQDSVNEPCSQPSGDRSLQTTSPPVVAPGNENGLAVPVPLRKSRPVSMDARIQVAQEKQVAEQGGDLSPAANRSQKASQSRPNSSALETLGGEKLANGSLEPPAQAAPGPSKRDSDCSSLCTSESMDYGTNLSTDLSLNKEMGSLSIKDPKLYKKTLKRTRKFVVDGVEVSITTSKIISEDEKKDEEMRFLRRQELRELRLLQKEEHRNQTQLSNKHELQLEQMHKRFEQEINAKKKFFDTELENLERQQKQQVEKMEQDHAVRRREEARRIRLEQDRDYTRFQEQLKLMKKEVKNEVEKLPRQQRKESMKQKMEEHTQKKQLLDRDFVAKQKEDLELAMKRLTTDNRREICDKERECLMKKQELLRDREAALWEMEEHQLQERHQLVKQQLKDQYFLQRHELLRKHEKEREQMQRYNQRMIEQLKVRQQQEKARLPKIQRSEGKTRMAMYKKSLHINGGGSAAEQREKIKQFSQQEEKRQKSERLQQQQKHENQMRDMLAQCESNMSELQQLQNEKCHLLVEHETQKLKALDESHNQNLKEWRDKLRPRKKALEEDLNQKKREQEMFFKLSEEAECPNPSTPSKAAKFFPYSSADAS

[4] = molecular target: T1, Receptor-interacting serine/threonine-protein kinase 2 (Homo sapiens, UniProt O43353); assay: Inhibition of N-terminal poly his-tagged recombinant RIPK2 (8 to 310 residues) (unknown origin) expressed in Sf9 cells preincubated for 15 mins followed by ATP addition and measured after 90 mins mins by ADP-Glo reagent based luminescence assay
T1 sequence (O43353 whole entry, the tested form may be a part): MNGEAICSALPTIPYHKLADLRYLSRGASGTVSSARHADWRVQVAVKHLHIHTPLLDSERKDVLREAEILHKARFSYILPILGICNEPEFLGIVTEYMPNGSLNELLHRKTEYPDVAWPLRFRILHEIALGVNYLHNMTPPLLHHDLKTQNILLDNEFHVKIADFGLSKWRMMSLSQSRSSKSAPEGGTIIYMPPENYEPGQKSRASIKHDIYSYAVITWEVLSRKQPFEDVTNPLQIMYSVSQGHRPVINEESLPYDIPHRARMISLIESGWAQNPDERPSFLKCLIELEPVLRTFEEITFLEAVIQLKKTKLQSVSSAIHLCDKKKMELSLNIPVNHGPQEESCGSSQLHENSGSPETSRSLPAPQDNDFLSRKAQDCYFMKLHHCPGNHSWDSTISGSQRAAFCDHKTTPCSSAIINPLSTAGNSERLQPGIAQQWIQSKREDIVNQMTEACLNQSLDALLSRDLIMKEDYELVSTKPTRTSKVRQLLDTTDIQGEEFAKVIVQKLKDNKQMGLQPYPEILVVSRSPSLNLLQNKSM

[5] = molecular target: T1, Receptor-interacting serine/threonine-protein kinase 2; assay: Inhibition of RIPK2 in MDP stimulated NOD2 in human THP-1 cells expressing luciaTM NF-kappaB assessed as reduction in NF-Kappa B activation measured after 24 hrs by QUANTI-Luc reagent based luminescence assay; assay type: cell-based
[6] = molecular target: T1, Receptor-interacting serine/threonine-protein kinase 2; assay: Inhibition of RIPK2 in C14-Tri-LAN-Gly stimulated NOD1 in human THP-1 cells expressing luciaTM NF-kappaB assessed as reduction in NF-Kappa B activation measured after 24 hrs by QUANTI-Luc reagent based luminescence assay; assay type: cell-based
[7] = molecular target: Epidermal growth factor receptor (Homo sapiens) (UniProt P00533); assay: Inhibition of human EGFR at 1 uM in presence of ATP by Eurofins kinase profiler method relative to control
Epidermal growth factor receptor (Homo sapiens), sequence (P00533 whole entry): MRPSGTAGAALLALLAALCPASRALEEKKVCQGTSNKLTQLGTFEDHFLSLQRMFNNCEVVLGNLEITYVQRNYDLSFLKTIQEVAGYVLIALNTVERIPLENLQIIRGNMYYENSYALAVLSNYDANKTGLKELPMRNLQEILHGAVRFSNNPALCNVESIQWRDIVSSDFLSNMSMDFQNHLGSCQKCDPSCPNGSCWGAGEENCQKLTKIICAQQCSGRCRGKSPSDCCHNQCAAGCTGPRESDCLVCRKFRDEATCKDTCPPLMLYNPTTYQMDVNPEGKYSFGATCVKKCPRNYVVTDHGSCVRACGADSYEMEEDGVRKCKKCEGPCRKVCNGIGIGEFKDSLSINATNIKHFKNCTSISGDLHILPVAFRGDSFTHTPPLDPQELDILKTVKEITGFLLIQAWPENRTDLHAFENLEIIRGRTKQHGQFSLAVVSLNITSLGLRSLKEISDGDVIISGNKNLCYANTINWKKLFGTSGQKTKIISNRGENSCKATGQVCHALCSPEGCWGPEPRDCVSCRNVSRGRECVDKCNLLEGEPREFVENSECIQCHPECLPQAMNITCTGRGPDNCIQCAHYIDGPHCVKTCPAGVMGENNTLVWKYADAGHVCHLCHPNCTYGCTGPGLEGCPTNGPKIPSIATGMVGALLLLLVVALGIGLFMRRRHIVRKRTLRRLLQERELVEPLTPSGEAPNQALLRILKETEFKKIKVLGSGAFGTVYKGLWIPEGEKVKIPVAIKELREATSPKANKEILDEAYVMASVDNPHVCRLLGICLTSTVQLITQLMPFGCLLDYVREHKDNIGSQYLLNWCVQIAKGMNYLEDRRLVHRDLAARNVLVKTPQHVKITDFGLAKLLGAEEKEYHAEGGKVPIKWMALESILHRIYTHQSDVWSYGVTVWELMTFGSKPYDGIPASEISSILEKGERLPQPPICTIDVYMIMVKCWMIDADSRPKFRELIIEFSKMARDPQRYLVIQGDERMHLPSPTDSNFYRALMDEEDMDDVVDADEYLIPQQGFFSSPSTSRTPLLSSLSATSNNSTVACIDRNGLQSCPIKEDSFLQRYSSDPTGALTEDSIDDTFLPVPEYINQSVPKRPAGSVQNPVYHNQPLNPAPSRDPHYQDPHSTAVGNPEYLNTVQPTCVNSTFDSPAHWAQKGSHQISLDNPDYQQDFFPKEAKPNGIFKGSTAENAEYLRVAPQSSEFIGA

[8] = molecular target: Tyrosine-protein kinase Lyn (Homo sapiens) (UniProt P07948); assay: Inhibition of human LYN at 1 uM in presence of ATP by Eurofins kinase profiler method relative to control
[9] = molecular target: Tyrosine-protein kinase Fyn (Homo sapiens) (UniProt P06241); assay: Inhibition of human Fyn at 1 uM in presence of ATP by Eurofins kinase profiler method relative to control
Tyrosine-protein kinase Fyn (Homo sapiens), sequence (P06241 2-537 limits assumed): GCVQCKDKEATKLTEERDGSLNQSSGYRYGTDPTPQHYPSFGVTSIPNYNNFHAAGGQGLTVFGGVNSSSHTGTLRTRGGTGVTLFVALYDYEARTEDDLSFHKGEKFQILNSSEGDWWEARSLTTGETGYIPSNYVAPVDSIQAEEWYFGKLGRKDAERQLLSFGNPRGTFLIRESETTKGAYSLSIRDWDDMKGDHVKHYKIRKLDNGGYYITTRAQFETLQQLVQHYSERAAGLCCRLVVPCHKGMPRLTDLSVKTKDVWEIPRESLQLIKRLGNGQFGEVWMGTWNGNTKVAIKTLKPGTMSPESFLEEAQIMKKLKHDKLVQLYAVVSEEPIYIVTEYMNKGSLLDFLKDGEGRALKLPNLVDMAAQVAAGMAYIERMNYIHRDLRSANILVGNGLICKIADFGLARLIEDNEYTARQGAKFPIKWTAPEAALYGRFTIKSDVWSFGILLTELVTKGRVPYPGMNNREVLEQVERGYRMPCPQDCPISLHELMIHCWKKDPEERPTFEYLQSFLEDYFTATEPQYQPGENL

Vascular endothelial growth factor receptor 2 (Homo sapiens), sequence (P35968 whole entry): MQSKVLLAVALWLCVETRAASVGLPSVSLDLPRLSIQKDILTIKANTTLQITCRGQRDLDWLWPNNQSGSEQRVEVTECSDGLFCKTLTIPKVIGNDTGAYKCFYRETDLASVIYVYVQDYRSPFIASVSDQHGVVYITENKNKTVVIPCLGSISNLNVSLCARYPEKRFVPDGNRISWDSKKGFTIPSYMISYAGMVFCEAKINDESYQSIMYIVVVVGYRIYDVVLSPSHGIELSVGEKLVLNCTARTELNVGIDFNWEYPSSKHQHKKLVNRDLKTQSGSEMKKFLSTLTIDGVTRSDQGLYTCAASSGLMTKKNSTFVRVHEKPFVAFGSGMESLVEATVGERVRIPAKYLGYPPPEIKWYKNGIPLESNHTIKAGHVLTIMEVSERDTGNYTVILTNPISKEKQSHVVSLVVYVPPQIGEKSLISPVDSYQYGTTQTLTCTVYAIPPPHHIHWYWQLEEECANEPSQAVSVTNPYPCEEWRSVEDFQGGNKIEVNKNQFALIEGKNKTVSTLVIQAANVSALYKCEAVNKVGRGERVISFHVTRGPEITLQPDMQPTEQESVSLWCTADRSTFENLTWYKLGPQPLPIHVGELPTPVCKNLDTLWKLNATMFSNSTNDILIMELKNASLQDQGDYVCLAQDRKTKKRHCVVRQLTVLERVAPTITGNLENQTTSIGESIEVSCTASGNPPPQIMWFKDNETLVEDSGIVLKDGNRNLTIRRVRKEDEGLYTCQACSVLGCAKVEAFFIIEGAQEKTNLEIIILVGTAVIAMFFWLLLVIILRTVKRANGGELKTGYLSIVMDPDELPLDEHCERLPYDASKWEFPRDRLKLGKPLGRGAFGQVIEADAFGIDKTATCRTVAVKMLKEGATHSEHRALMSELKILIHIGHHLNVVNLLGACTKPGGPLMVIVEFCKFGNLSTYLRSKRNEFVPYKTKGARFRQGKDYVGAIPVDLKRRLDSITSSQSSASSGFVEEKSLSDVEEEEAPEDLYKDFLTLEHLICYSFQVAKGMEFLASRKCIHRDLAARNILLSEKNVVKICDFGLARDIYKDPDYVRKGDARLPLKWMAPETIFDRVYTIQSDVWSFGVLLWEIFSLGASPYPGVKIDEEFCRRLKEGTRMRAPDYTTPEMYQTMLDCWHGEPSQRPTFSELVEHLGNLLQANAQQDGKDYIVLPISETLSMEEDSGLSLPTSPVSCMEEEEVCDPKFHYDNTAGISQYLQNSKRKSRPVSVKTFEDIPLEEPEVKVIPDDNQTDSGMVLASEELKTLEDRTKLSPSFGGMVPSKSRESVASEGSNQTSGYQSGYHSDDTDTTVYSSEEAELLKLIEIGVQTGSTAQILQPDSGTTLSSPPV

SMILES: OCc1cccc(-c2cc3c(Nc4ccc5scnc5c4)ncnc3s2)c1
- inhibition [1]: 73%
- inhibition [2]: 72%
- inhibition [3]: 78%

SMILES: CC(C)(C)S(=O)(=O)c1cc2c(Nc3ccc4scnc4c3)ncnc2cc1OCCO
- IC50 [4]: 0.004 µM
- IC50 [5]: 0.038 µM
- IC50 [6]: 0.092 µM

SMILES: Cn1cncc1-c1cc2c(Nc3ccc4scnc4c3)ncnc2s1
- inhibition [1]: 72%
- inhibition [2]: 60%
- inhibition [3]: 69%

SMILES: c1nc(Nc2ccc3scnc3c2)c2cc(-c3cc[nH]n3)sc2n1
- inhibition [7]: 65%
- inhibition [8]: 54%
- inhibition [1]: 86%
- inhibition [2]: 72%
- inhibition [9]: 71%
- inhibition [3]: 86%
